# Tests used:
# total micro-organism = assay: Total microbial (plate) count of spent brewer's / wet distiller's grains stored at ambient temperature; format: cell-based
# Outline: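 Spent brewer's grains taken from a brewery discharge line were mixed at the laboratory and treated with powdered commercial calcium oxide containing approximately 94% CaO. Each batch was kept under insect-proof screens at ambient temperature, with no further treatment or agitation. Samples were drawn every seven days, and the entire sample was sent to a microbiological testing facility for total microbial counts.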
# yeast = assay: Yeast count of spent brewer's / wet distiller's grains stored at ambient temperature; format: cell-based; details: dose 10% (w/w)
# Description: Samples of Portion 1 (“AR”), Portion 3 (“SO”) and Portion 5 (“SH”) were then delivered to a microbiological testing facility about 15 kilometres from the treatment laboratory. Each was tested for initial total microbial, yeast and mould counts, respectively.
# Separate untreated samples were similarly stored under insect-proof screens at ambient temperature for seven days (as shown in Tables 1 and 2). During the trial period the ambient temperature ranged from 11 to 33 degrees C.
# The free moisture content on the initial spent brewer's grains was determined to be 78.1% m/m. After exposure to the environment for seven days, all of the samples were tested at a South African National Accreditation System (SANAS) approved microbiological testing facility. Each was tested for total micro-organism, yeast and mould counts to determine the affect of the various treatments. A similar procedure to that described in K. A. Rosentrater et al, Food Bioprocess Technol (2008) was used for the microbiological evaluation.
# At the laboratory, the samples were thoroughly mixed and initially split into a first portion (Portion 1) and a second portion (Portion 2). Portion 1 was left untreated. A sample of Portion 1, was delivered immediately to a microbiological testing facility about 15 kilometres away from the treatment laboratory and was tested for initial total microbial, yeast and mould counts, respectively. No water removal prior to treatment was done in this experiment as was the case in Example 8 wherein a similar wet material was partially dewatered by pressing and the residue treated with 10% (w/w/) calcium oxide.
# Samples from Portion 2 were subjected to treatment with varying amounts of a powdered, commercially-available calcium oxide containing approximately 94% calcium oxide (CaO) as shown in Table 32. The treatments varied from 2.5 to 10% (w/w) calcium oxide addition. The samples were stored in batches (according to the calcium oxide treatment) under insect-proof screens at ambient temperature for fifty six days. Separate untreated samples were similarly stored under insect-proof screens at ambient temperature for a total of 56 days. During the trial period the ambient temperature ranged from 10 to 30 degrees C. As this period was the southern hemisphere spring/early summer, the humidity as well as ambient temperatures varied widely.
# The free moisture content on the initial spent brewer's grains was determined to be 79.4% m/m. After exposure to the environment for seven days, all of the samples were tested at a South African National Accreditation System (SANAS) approved microbiological testing facility. Each was tested for total micro-organism, yeast and mould counts to determine the affect of the various treatments. A similar procedure to that described in K. A. Rosentrater et al, Food Bioprocess Technol (2008) was used for the microbiological evaluation.
# Samples from each treatment were drawn every seven days. No further calcium oxide treatment or agitation took place after the initial mix. In each case the entire sample was isolated and delivered to the microbiological testing facility.
# The calcium oxide treatment trial described in Example 9 wherein wet distiller's grains were treated with 2.5%, 5% and 10.0% calcium oxide, respectively, versus untreated material was repeated using lower doses of calcium oxide. In this trial the same source of wet distiller's grains (again with now partial water removal prior to treatment) was treated. Also, the same protocol as described in Example 9 was applied, but at lower doses of calcium oxide i.e. 0.5%, 1.0%, 1.5%, 2.0% and 2.5%, respectively, versus untreated material.
# In this trial the same source of wet distiller's grains (again with now partial water removal prior to treatment) was treated. Also, the same protocol as described in Example 9 was applied.
# [1] = dose 10% w/w, partially de-watered wet distiller's grains, Example 8
compound,measurement,setting,value
[Ca+2].[O-2] [CaO powder],Total plate count,"total micro-organism; dose 5% (w/w), week 0",640 cfu/gram
same,Total plate count,"total micro-organism; dose 5% (w/w), week 1",1800 cfu/gram
same,Total plate count,"total micro-organism; dose 5% (w/w), week 2",280 cfu/gram
same,Total plate count,"total micro-organism; dose 5% (w/w), week 3",210 cfu/gram
same,Total plate count,"total micro-organism; dose 5% (w/w), week 4",<10 cfu/gram
same,Total plate count,"total micro-organism; dose 5% (w/w), week 6",40 cfu/gram
same,Total plate count,"total micro-organism; dose 5% (w/w), week 7",900 cfu/gram
same,Total plate count,"total micro-organism; dose 5% (w/w), week 8",120 cfu/gram
same,Total plate count,"total micro-organism; dose 5% (w/w), week 9",20 cfu/gram
same,Total plate count,"total micro-organism; dose 10% (w/w), week 0",100 cfu/gram
same,Total plate count,"total micro-organism; dose 10% (w/w), week 1",310 cfu/gram
same,Total plate count,"total micro-organism; dose 10% (w/w), week 2",150 cfu/gram
same,Total plate count,"total micro-organism; dose 10% (w/w), week 3",40 cfu/gram
same,Total plate count,"total micro-organism; dose 10% (w/w), week 4",20 cfu/gram
same,Total plate count,"total micro-organism; dose 10% (w/w), week 6",<10 cfu/gram
same,Total plate count,"total micro-organism; dose 10% (w/w), week 7",300 cfu/gram
same,Total plate count,"total micro-organism; dose 10% (w/w), week 8",80 cfu/gram
same,Total plate count,"total micro-organism; dose 10% (w/w), week 9",<10 cfu/gram
same,minimum preservation time with total microbial counts <60 cfu/g,total micro-organism; [1],2 weeks
same,minimum preservation time with total microbial counts <1000 cfu/g,total micro-organism; [1],≧1 year
same,Yeast Count,yeast; week 3,<10 cfu/gram
same,Yeast Count,yeast; week 4,<10 cfu/gram
same,Yeast Count,yeast; week 5,<10 cfu/gram
same,Yeast Count,yeast; week 6,<10 cfu/gram
same,Yeast Count,yeast; week 9,<10 cfu/gram

# From patent publication US20120009280A1, “METHOD OF REDUCING THE RATE OF DEGRADATION OF A BIOLOGICAL MATERIAL” (Bio-Energy Ingredients Limited, priority 2009, published 2012)
